One test has as its system LC3-II. Description: Rat in vivo OHT model, Western blot of LC3-II. The conditions noted are these: in vivo OHT eyes, 3 weeks after microbead injection, relative units, control = 1.00; for LC3-II expression (FIG. 6B), individual experiments 1-4: single values. On the procedure: (§1) Example 7. Rat in vivo OHT model induced by intracameral injection of microbeads—For induction of ocular hypertension (OHT) in vivo, sterile 6 μm polystyrene microbeads were injected into the anterior chamber of the left eye of each animal using a single-step, sclero-corneal tunnel approach with a 35G nanoneedle (FIG. 4A). […] After stabilization of elevated IOP, animals were randomly divided into 3 groups (non-treated OHT, AlloP injection, and ent-AlloP injection). AlloP and ent-AlloP were administered as a one-time intravitreal injection one week following bead injection. Non-treated OHT animals received sterile vehicle intravitreally. As a further control, vehicle was intravitreally injected 7 days after intracameral administration of 10 μl of PBS. Three weeks after bead injections, IOP was 26.7±3.7 mmHg in non-treated OHT eyes compared to 9.9±0.9 mmHg in control eyes.
Rat in vivo OHT model—8-week old male Sprague-Dawley rats were deeply anesthetized with an intraperitoneal injection of a mixture of medetomidine hydrochloride (Cat #133-17474, CAS. No 86347-15-1, Wako Pure Chemical Industries Ltd., Osaka, Japan, 0.15 mg/kg), midazolam (Cat #135-13791, CAS. No 58786-99-5, Wako Pure Chemical Industries Ltd., 2 mg/kg), and butorphanol tartrate (Cat #021-19001, CAS. No […], Wako Pure Chemical Industries Ltd., 2.5 mg/kg), and intraocular pressure was increased unilaterally to approximately 35 mmHg, by intracameral injection of polystyrene microbeads using a single-step, sclero-corneal tunnel approach with a 35G-gauge nanoneedle (#LNAN-3505LM, Saito Medical Instruments Inc., Tokyo, Japan) connected to 100 μl WPI Nanofil 100 microsyringe (World Precision Instruments, Inc., Sarasota, FL). Sterile 6 μm polystyrene microbeads in a 1×10^6 microbeads/ml solution (Molecular Probes, Eugene, OR, USA) were concentrated to obtain a 1×10^7 microbeads/ml solution. […] Ocular hypertension was monitored preoperatively, and at 3 days, 1 week, 2 weeks or 3 weeks after the beads were injected. IOP was measured using a laboratory tonometer (TonoLab, Icare, Finland). […]

Another test relates to optic nerve axons. Description: Rat in vivo OHT model, density of optic nerve axons. The settings on record: OHT eyes, intravitreal, 3 weeks after microbead injection; single values. On the procedure:
as §1
Example 9. RGC survival by neurosteroids during IOP elevation—In whole mounted retinas, glaucomatous damage was visible as reduced numbers of cells that were positive for NeuN three weeks after microbead injection in non-treated OHT eyes compared with control eyes (FIG. 4J, 4K). […] In sections of optic nerves stained with 2% toluidine blue, axonal loss was detected 3 weeks after microbead injection in non-treated OHT eyes compared with control eyes (FIG. 4O, 4p). […]

Another test relates to TUNEL-positive RGCs. Description: Rat in vivo OHT model, TUNEL staining. The conditions noted are these: OHT eyes, intravitreal, three weeks after bead injection; single values. As for the experimental part:
as §1, with “As a further control, vehicle was intravitreally injected 7 days after intracameral administration of 10 μl of PBS. Three weeks after bead injections, IOP was 26.7±3.7 mmHg in non-treated OHT eyes compared to 9.9±0.9 mmHg in control eyes.” left out
Apoptosis—To visualize apoptotic cells, a DeadEnd™ Colorimetric TUNEL (TdT-mediated dUTP Nick-End Labeling) System (Promega, Madison, WI) was used according to the manufacturer's instructions. […] After the length of each retinal section was measured (Image-Pro Plus software), the cells were counted in the whole section length and the number of cells was normalized per 200 μm of retinal section. The number of apoptotic cells was evaluated by Dunnett's multiple comparison test to determine changes in the density of apoptotic cells among experimental retinas treated with 1 μM AlloP or 1 μM ent-AlloP at 75 mmHg and control retinas incubated with aCSF at 75 mmHg. […]

For another test, the system named is GABAA receptors. The conditions noted are these: cited from earlier work.

“And” between values parts separate entries of the source, which are not always exact repeats. Equal values may be shown once.

On to `CC(=O)[C@@H]1CC[C@@H]2[C@H]3CC[C@@H]4C[C@@H](O)CC[C@@]4(C)[C@@H]3CC[C@]21C` [ent-AlloP, ent-allopregnanolone], for which the “LC3-II expression (FIG. 6B), individual experiments 1-4” value with LC3-II was 4.96 and 4.97 and 4.27 and 5.04. In the test on optic nerve axons, the “Density of axons in ONs, individual 1-5” value was 31 Axons × 10000/square mm and 33 Axons × 10000/square mm and 32 Axons × 10000/square mm and 29 Axons × 10000/square mm and 27 Axons × 10000/square mm. Moreover, in the test on TUNEL-positive RGCs, the “TUNEL staining (FIG. 4I), number of TUNEL-positive RGCs, individual 1-5” value was 1 per 200 μm of retinal sections (2×) and 0 per 200 μm of retinal sections (3×). The “action on GABAA receptors” value with GABAA receptors was “weak actions”.
For the compound `CC(=O)[C@H]1CC[C@H]2[C@@H]3CC[C@H]4C[C@H](O)CC[C@]4(C)[C@H]3CC[C@]12C` [AlloP, allopregnanolone], the “LC3-II expression (FIG. 6B), Average” value with LC3-II (Average of 4) is 3.00. For the same compound, the “LC3-II expression (FIG. 6B), individual experiments 1-4” value in the test on LC3-II was 2.73 and 3.32 and 2.82 and 3.11. Moreover, the “Density of axons in ONs, individual 1-5” value in the test with optic nerve axons is 33 Axons × 10000/square mm (2×) and 27 Axons × 10000/square mm and 32 Axons × 10000/square mm and 29 Axons × 10000/square mm. In the test on TUNEL-positive RGCs, the “TUNEL staining (FIG. 4I), number of TUNEL-positive RGCs, individual 1-5” value is 1 per 200 μm of retinal sections (2×) and 0 per 200 μm of retinal sections (3×). The “action on GABAA receptors” value in the test on GABAA receptors is “strong enhancer”.

Values taken from US20240041898A9, “NEUROSTEROIDS AND ENANTIOMERS THEREOF FOR THE PREVENTION AND TREATMENT OF NEURODEGENERATIVE CONDITIONS” (priority 2019, published 2024).
